These are literature values, as cited in patent publication US20110015245A1, “BENDAMUSTINE AMPHIPHILIC CATIONIC COMPOSITIONS” (priority 2009, published 2011).

The conditions of the data set: 23° C.

Where a name gives a salt, the structure may show the parent alone.

In the case of `Cn1c(CCCC(=O)O)nc2cc(N(CCCl)CCCl)ccc21` [bendamustine hydrochloride], the “time stable in saline solution” value is 9 h.
